{"source": "patent US11578049B2", "about": "“Benzoic acid compound and method for preparing the same” (Henan Genuine Biotech Co., Ltd., priority 2018, dated 2023)", "key": {"[1]": {"experiment": "Physical properties of the salts (water absorption)", "format": "physicochemical", "conditions": "solid salt", "excerpt": "5. The type of the salt of the compound 5 affects its physical properties. […] In addition, the excess alkali leads to the closed-loop reaction between hydroxyl group and fluorine atom. Potassium hydroxide contacts the compound 12 to yield a potassium salt which is not a solid. […] Therefore, high-purity of potassium salt and sodium salt products are not easy to obtain in this disclosure, which is unfavorable to large-scale production. Therefore, the following compounds are also included in the present invention: […]"}, "[2]": {"experiment": "in vitro", "conditions": "human, microsomes, pH 7.4", "method": "(§5) 1000 μL of a reaction system contained butylphthalide compounds (2 μg/mL), human liver microsomes (1.0 mg/ml), NADPH (2 mM) and phosphate buffer (100 mM, pH=7.4). […] The human liver microsomes were pre-incubated with MTB compound series for 5 min at 37° C. water bath in a phosphate buffer. The reaction mixture was initiated by an addition of NADPH and incubated for 0, 5, 10, 20, 30, 40, 60 and 120 minutes. To the resulting mixture cooled in an ice bath, was added 50 μL of internal standard solution and 150 μL of frozen methanol to terminate the reaction, then followed by LC/MS/MS detection with reference to 2.1).\n(§6) The concentrations of the MTB compound series are determined on a standard curve obtained by plotting time versus concentration using the Pharmacokinetic software DAS 3.0, and the elimination half-life (t1/2) was determined from the concentration-time plots."}, "[3]": {"system": "rats exposed to cerebral ischemia and reperfusion", "experiment": "Cerebral blood flow in rats exposed to cerebral ischemia and reperfusion (tMCAO), laser Doppler", "format": "in vivo, Sprague Dawley (SD) rats", "conditions": "for Reperfusion/Postoperative (cerebral blood flow recovery): 2 hours ischemia, 3 mg/kg iv immediately after reperfusion; for Postoperative/Preoperative (cerebral blood flow): blood flow immediately after initiation of ischemia relative to before the operation, drug 3 mg/kg iv given immediately after reperfusion", "procedure": "(§1) 1.2 Experimental procedure: Male Sprague Dawley (SD) rats was subjected to operation after experimental adaption for 5-7 days, with a weight of 200-250 g. The rats were anesthetized by intraperitoneal injection of 0.35 mL/100 g 10% chloral hydrate, and positioned on a temperature-controlled, operating surface. The common carotid artery was isolated from surrounding nerves to the bifurication between the external carotid artery and the internal carotid artery. The external carotid artery was then isolated. A sterile middle cerebral artery occlusion (MCAO) suture was advanced through external carotid artery into the internal carotid artery (about 18 mm±0.5 mm from the point of the carotid bifurication), effectively occluding the middle cerebral artery. The suture was withdrawn after 2 hours ischemic period to simulate clinical reperfusion. All rats were scored according to Longa scoring system, in which the rats with a total score less than 1 were withdrawn. The rats were kept on a heating blanket and allowed to recover from anesthesia. A neurobehavioral examination was performed at 24 h after awakening. Blood was drawn from each rat under anesthesia, collected in a tube containing K2-EDTA as anticoagulant for stabilizing the blood samples, centrifuged to separate supernatant from precipitate, and stored at […]. Then the rats were euthanized. The brains were cut into slices, stained with 2,3,5-triphenyltetrazolium chloride (TTC), and used to determine the infarct area. The experiment was complete within 3 days, with 3-4 rats per group daily.\n1.3 Intraoperative monitoring: Transcranial measurement of cerebral blood flow was made using […] at three points, namely before the operation, immediately after the initiation of ischemia, and immediately after reperfusion.\n(§2) 1.7 Drug preparation: The drugs to be tested were accurately weighed, dissolved in physiological saline to give a final concentration of 1.5 mg/mL.\n(§3) 1.8 Administration method: The drugs were removed from the refrigerator and […] to room temperature before the rats were dosed. The dosing volume was 2 mL/kg.\n(§4) All data was imported into an Excel worksheet, and expressed as mean±standard error of the mean. Statistical significance was determined by one-way ANOVA with Dunnett's multiple comparison test (*P<0.05, **P<0.01)."}, "[4]": {"experiment": "in vivo", "conditions": "mouse", "method": "(§7) The drugs were diluted in the water to prepare different concentration ranges per each drug, and injected via tail vein into the mice, respectively. Mortality was determined and LD50 (median lethal dose) value was calculated."}, "[5]": {"system": "rats exposed to cerebral ischemia and reperfusion", "experiment": "Infarct area of rats exposed to cerebral ischemia and reperfusion (tMCAO), TTC staining", "format": "in vivo, Sprague Dawley (SD) rats", "conditions": "3 mg/kg iv immediately after reperfusion; for Cerebral infarction ratio: TTC, infarct area / total brain area; for Percentage inhibition of cerebral infarction: versus model group", "procedure": "as §1, §2, §3\n1.9.2 Cerebral infarction ratio: The rats were euthanized with chloral hydrate (330 mg/kg anesthesia), given by CO2 inhalation, and blood was drawn by cardiac puncture. The brains were removed from the skull and cut into 2 mm coronal slices using a rat brain matrix. Each slice was stained with 1% TTC at 37° C. for 5 minutes, protected from light, and were photographed. The ratio of infarct area was then determined using an image analysis software Image Pro Plus 6.0. The infarct areas were summed and divided by total brain area to yield the ratio of infarct area.\nas §4"}, "[6]": {"experiment": "Metabolic stability measured in human liver microsomes", "conditions": "for half-life at 2 μg/mL: human, pH 7.4; for t1/2 (elimination half-life): human liver microsomes 1.0 mg/ml, compound 2 μg/mL, NADPH 2 mM, pH 7.4, 37° C.", "method": "as §5, §6"}, "[7]": {"system": "mice", "conditions": "for median lethal dose: acute toxicity test", "method": "as §7"}, "[8]": {"conditions": "text: recovery relative to preoperative, 3 mg/kg"}}, "note": "Several values for one entry are separate records, joined by “and”; a condition that tells them apart may be missing. Equal entries are not always repeated.", "data": [{"smiles": "O=C(O)c1cc(Br)ccc1C(O)CCCCF", "note": "(centres unmarked) [Compound 17]", "values": [{"measurement": "water absorption in the air", "setting": "[1]", "value": "no water absorption"}, {"measurement": "half-life at 2 μg/mL", "setting": "[2]", "value": 19.3, "unit": "h"}, {"measurement": "Reperfusion/Postoperative (cerebral blood flow recovery)", "setting": "[3]; [8]", "value": "95.6% and 95.3%"}, {"measurement": "Postoperative/Preoperative (cerebral blood flow)", "setting": "[3]", "value": 15.5, "unit": "%"}, {"measurement": "LD50", "setting": "[4]; intravenous", "value": 1100, "unit": "mg/kg"}, {"measurement": "Cerebral infarction ratio", "setting": "[5]", "value": 11.8, "unit": "%"}, {"measurement": "Percentage inhibition of cerebral infarction", "setting": "[5]", "value": 77.4, "unit": "%"}]}, {"smiles": "O=C([O-])c1cc(Br)ccc1C(O)CCC1CC1.[Na+]", "note": "(centres unmarked) [Compound 14]", "values": [{"measurement": "half-life at 2 μg/mL", "setting": "[6]; human liver microsomes", "value": 2.44, "unit": "h"}, {"measurement": "Reperfusion/Postoperative (cerebral blood flow recovery)", "setting": "[3]; recovery relative to preoperative", "value": 88.3, "unit": "%"}, {"measurement": "Postoperative/Preoperative (cerebral blood flow)", "setting": "[3]", "value": 13.5, "unit": "%"}]}, {"smiles": "O=C([O-])c1cc(Br)ccc1C(O)CCCCF.[Na+]", "note": "(centres unmarked) [Compound 15]", "values": [{"measurement": "water absorption in the air", "setting": "[1]", "value": "easy to absorb water in the air"}, {"measurement": "median lethal dose", "setting": "[7]", "value": 1036, "unit": "mg"}, {"measurement": "half-life at 2 μg/mL", "setting": "[6]; microsomes", "value": 19.1, "unit": "h"}, {"measurement": "Reperfusion/Postoperative (cerebral blood flow recovery)", "setting": "[3]; [8]", "value": 95.6, "unit": "%"}, {"measurement": "Reperfusion/Postoperative (cerebral blood flow recovery)", "setting": "[3]; text: recovery relative to preoperative, listed as compound 15, 3 mg/kg", "value": "95.3% and 95.6%"}, {"measurement": "Postoperative/Preoperative (cerebral blood flow)", "setting": "[3]", "value": 16.8, "unit": "%"}, {"measurement": "LD50", "setting": "[4]", "value": 1040, "unit": "mg/kg"}, {"measurement": "Cerebral infarction ratio", "setting": "[5]; 3 mg/kg", "value": 12.0, "unit": "%"}, {"measurement": "Cerebral infarction ratio", "setting": "[5]; listed as compound 15, 3 mg/kg", "value": 12.0, "unit": "%"}, {"measurement": "Percentage inhibition of cerebral infarction", "setting": "[5]; 3 mg/kg", "value": 75.3, "unit": "%"}, {"measurement": "Percentage inhibition of cerebral infarction", "setting": "[5]; listed as compound 15, 3 mg/kg", "value": 75.3, "unit": "%"}]}, {"smiles": "CCCCC(O)c1ccccc1C(=O)[O-].[K+]", "note": "(centres unmarked) [Potassium butylphthalide]", "values": [{"measurement": "median lethal dose", "setting": "[7]", "value": 373, "unit": "mg"}, {"measurement": "LD50 (median lethal dose)", "setting": "[7]; injected via tail vein", "value": 373, "unit": "mg/kg"}, {"measurement": "t1/2 (elimination half-life)", "setting": "[6]; listed as Potassium Butylphthalide", "value": "<1", "unit": "h"}, {"measurement": "t1/2 (elimination half-life)", "setting": "[6]; listed as potassium butylphthalide", "value": "less than 1 h"}, {"measurement": "Cerebral infarction ratio", "setting": "[5]; 3 mg/kg", "value": 37.5, "unit": "%"}, {"measurement": "Cerebral infarction ratio", "setting": "[5]; listed as potassium butylphthalide, 3 mg/kg", "value": 37.5, "unit": "%"}, {"measurement": "Percentage inhibition of cerebral infarction", "setting": "[5]; 3 mg/kg", "value": 26.4, "unit": "%"}, {"measurement": "Percentage inhibition of cerebral infarction", "setting": "[5]; listed as butylphthalide potassium, 3 mg/kg", "value": 26.4, "unit": "%"}]}]}
